Read-outs that look alike come from different tables or passages of the source. Bridge positions count the residues as written; N and C are the ends. Square brackets hold non-standard residues; d marks the D form. Peptide text beside a SMILES is read from it. * marks the point of attachment. Heptanoyl(5-Me) = CCC(C)CCCC(=O)*; Dab = NCC[C@H](N)C(=O)O
Experiments:
A. nosocomialis 1461911 [1] = test: Checkerboard colistin sulphate (CS) plus teicoplanin (TP), MIC/FIC and MBC/FBC; assay type: cell-based, Acinetobacter nosocomialis
Description: (§1) Checkerboard analysis to determine minimal inhibitory concentration (MIC)/fractional inhibitory concentration (FIC) and minimal […] (MBC)/fractional […] (FBC) values of colistin sulphate (CS) plus teicoplanin (TP) for 6 Gram-negative strains with a bacterial load 5(1-10)*10^5 CFU/ml in a cation-adjusted Mueller-Hinton broth (CAMHB). • a. Antimicrobial stock solutions were prepared using sterile distilled water • b. CS was added along the ordinate; TP was added along the abscissa to 96 well, flat bottom, polystyrene panels with no treatment. Colistin alone was tested in triplicates. • c. Serial 2-fold dilutions starting with 640 μg/ml CS and 640 μg/ml TP were made; 15 μl volume of the serial dilutions were added for each agent to the appropriate wells; final volume at 30 μl • d. For each agent tested alone an additional 15 μl media was added to the well. 30 μl were added in control wells where none of the agent was tested. The negative control well contains 150 μl media without any additions • e. From an overnight bacterial culture in tryptic soy broth, 100 μL was added to 10 mL of fresh tryptic soy broth. This was then incubated at 37° C. for 1.5 hour at 180 rpm. • f. Bacteria in 120 μl CAMHB were added to each well (end concentration 5(1-10)*10^5 CFU/ml) • g. Plates were incubated at 37° C. in an ambient air incubator for 24 h • h. Turbidity at OD600 is determined with a plate photometer • i. By using a one-time inoculator 3 μl from each well of the 96-well plate were transferred to three blood agar plates. The plates were incubated over night at 37° C. in an ambient air incubator • j. MIC values are defined as lowest concentration which restricts bacterial growth to OD600 ≤0.1 • k. MBC values were determined by visual reading the lowest concentration which inhibits 99.9% of the growth of bacteria in the wells • l. Determination of the fractional inhibitory concentration (FIC) index and fractional bactericidal concentration (FBC) index and characterization of antimicrobial interactions was assessed […]
(§2) FIC calculation was carried out as: (MIC of drug A, tested in combination)/(MIC of drug A, tested alone)+(MIC of drug B, tested in combination)/(MIC of drug B, tested alone). FBC calculation was carried out just as well […]
(§3) Interactive categories were calculated from checkerboard analysis using MIC results from testing each agent alone and MIC results from the combination wells adjacent to the wells with growth in them […]
b. Indifference; FIC/FBC>0.5 to<4.0 c. Antagonism; FIC/FBC≥4.0 b. A. nosocomialis 1461911 (IHMA), colistin resistant

A. haemolyticus 1655843 = test: as above; assay type: cell-based, Acinetobacter haemolyticus; settings: agent alone, CAMHB, 5*10^5 CFU/ml; for MIC: A. haemolyticus 1655843, 24 h
Description: as §1, §2, §3
b. Indifference; FIC/FBC>0.5 to<4.0 c. Antagonism; FIC/FBC≥4.0 c. A. haemolyticus 1655843 (IHMA), colistin resistant

A. nosocomialis 1461911 [2] = test: Checkerboard fusidic acid (FD) and colistin sulfate (CS), MIC/FIC and MBC/FBC; assay type: cell-based, Acinetobacter nosocomialis
Description: (§4) Checkerboard assays between fusidic acid (FD) and colistin sulfate (CS) with a bacterial load 5(1-10)*10^5 CFU/ml in cationic adapted Mueller Hinton broth (CAMHB). • a. Antimicrobial stock solutions were prepared using sterile distilled water; • b. CS was added along the ordinate; FD was added along the abscissa to 96 well, flat bottom, polystyrene panels with no treatment. Colistin alone was tested in triplicates; • c. Serial 2-fold dilutions starting with 640 […] CS and 640 μg/ml FD were made; 15 μl volume of the serial dilutions were added for each agent to the appropriate wells—final volume at 30 μl; • d. For each agent tested alone an additional 15 μl media was added to the well. 30 μl were added in control wells where none of the agent was tested. The negative control well contains 150 μl media without any additions; • e. From an overnight bacterial culture in tryptic soy broth, 100 μL was added to 10 mL of fresh tryptic soy broth. This was then incubated at 37° C. for 1.5 hour at 180 rpm; • f. Bacteria in 120 μl CAMHB were added to each well (end concentration 5(1-10)*10^5 CFU/ml); • g. Plates were incubated at 37° C. in an ambient air incubator for 24 h • h. Turbidity at OD600 is determined with a plate photometer • i. By using a one-time inoculator 3 μl from each well of the 96-well plate were transferred to three blood agar plates. The plates were incubated over night at 37° C. in an ambient air incubator; • j. MIC values are defined as lowest concentration which restricts bacterial growth to OD600≤0.1; • k. MBC values were determined by visual reading the lowest concentration which inhibits 99.9% of the growth of bacteria in the wells; • l. Determination of the fractional inhibitory concentration (FIC) index and fractional bactericidal concentration (FBC) index and characterization of antimicrobial interactions was assessed;
(§5) FIC calculation was carried out as: (MIC of drug A, tested in combination)/(MIC of drug A, tested alone)+(MIC of drug B, tested in combination)/(MIC of drug B, tested alone). FBC calculation was carried out just as well;
(§6) Interactive categories were calculated from checkerboard analysis using MIC results from testing each agent alone and MIC results from the combination wells adjacent to the wells with growth in them.
(§7) Determination of the fractional inhibitory concentration (FIC) index and fractional bactericidal concentration (FBC) index and characterization of antimicrobial interactions was assessed:
(§8) (ii) Indifference; FIC/FBC>0.5 to <4.0
(§9) (iii) Antagonism; FIC/FBC≥4.0
b. Acinetobacter nosocomialis 1461911 (IHMA), colistin resistant (3xCS 4/8)

A. guillouiae 1285286 = test: as above; assay type: cell-based, Acinetobacter guillouiae
Description: as §4, §5, §6, §7, §8, §9
d. Acinetobacter guillouiae 1285286 (IHMA), colistin resistant (2xCS 2/4)

S. maltophilia 1221783 = test: Checkerboard fusidic acid (FD) and colistin sulfate (CS), MIC/FIC; assay type: cell-based, Stenotrophomonas maltophilia; settings: agent alone, CAMHB, 1*10^6 CFU/ml, 24 h
Description: Checkerboard assays between fusidic acid (FD) and colistin sulfate (CS) with a bacterial load 5(1-10)*10^5 CFU/ml in cationic adapted Mueller Hinton broth (CAMHB). • a. Antimicrobial stock solutions were prepared using sterile distilled water; • b. CS was added along the ordinate; FD was added along the abscissa to 96 well, flat bottom, polystyrene panels with no treatment. Colistin alone was tested in triplicates; • c. Serial 2-fold dilutions starting with 640 […] CS and 640 μg/ml FD were made; 15 μl volume of the serial dilutions were added for each agent to the appropriate wells—final volume at 30 μl; • d. For each agent tested alone an additional 15 μl media was added to the well. 30 μl were added in control wells where none of the agent was tested. […] Turbidity at OD600 is determined with a plate photometer • i. […] Determination of the fractional inhibitory concentration (FIC) index and fractional bactericidal concentration (FBC) index and characterization of antimicrobial interactions was assessed; […]
as §6
Determination of the fractional inhibitory concentration (FIC) index and fractional bactericidal concentration (FBC) index and characterization of antimicrobial interactions was assessed: […]

Work on `CCC(C)CCCC(=O)N[C@@H](CCN)C(=O)N[C@H](C(=O)N[C@@H](CCN)C(=O)N[C@H]1CCNC(=O)[C@H]([C@@H](C)O)NC(=O)[C@H](CCN)NC(=O)[C@H](CCN)NC(=O)[C@H](CC(C)C)NC(=O)[C@@H](CC(C)C)NC(=O)[C@H](CCN)NC1=O)[C@@H](C)O` (stereo partly drawn) [CS, colistin sulphate] ({Heptanoyl(5-Me)}-[Dab]T[Dab][Dab][Dab][dL]L[Dab][Dab]T; lactam 4-C) yielded an MIC (A. nosocomialis 1461911 [1]; Acinetobacter nosocomialis, 1461911, colistin resistant A. nosocomialis strain 1461911 IHMA, as stated for the mouse model, read-out: MIC) of 4 µg/mL, an MBC (A. nosocomialis 1461911 [1]; Acinetobacter nosocomialis, 1461911, A. nosocomialis, agent alone, CAMHB, 5*10^5 CFU/ml, read-out: MBC) of 8 µg/mL and an MIC (A. haemolyticus 1655843) greater than 16 µg/mL. The MIC (A. haemolyticus 1655843; listed as colistin) was no less than 4 µg/mL, the MBC (A. haemolyticus 1655843; Acinetobacter haemolyticus, 1655843, A. haemolyticus, read-out: MBC) was greater than 16 µg/mL and the MIC (A. nosocomialis 1461911 [2]; A. nosocomialis 1461911, agent alone, CAMHB, 1*10^6 CFU/ml, 24 h) was 4 mg/1l. It also gave an MBC (A. nosocomialis 1461911 [2]; Acinetobacter nosocomialis, A. nosocomialis 1461911, agent alone, CAMHB, 1*10^6 CFU/ml) of 8 µg/mL, an MIC (A. nosocomialis 1461911 [2]; organism list of Example 3, Acinetobacter nosocomialis 1461911, 3x, read-out: Colistin CS MIC) of 4 µg/mL and an MIC (A. guillouiae 1285286; A. guillouiae 1285286, agent alone, CAMHB, 1*10^6 CFU/ml, 24 h) of 2 mg/1l. For the same compound, the MBC (A. guillouiae 1285286; Acinetobacter guillouiae, 1285286, A. guillouiae, agent alone, CAMHB, 1*10^6 CFU/ml, read-out: MBC) was 4 µg/mL, the MBC (A. guillouiae 1285286; organism list of Example 3, Acinetobacter guillouiae 1285286, 2x, read-out: Colistin CS MBC) was 4 µg/mL and the MIC (A. guillouiae 1285286; organism list of Example 3, Acinetobacter guillouiae 1285286, 2x, read-out: Colistin CS MIC) was 2 µg/mL. The MIC (S. maltophilia 1221783) was 0.5 mg/1l.

Reference: US20220016200A1, “PHARMACEUTICAL COMPOSITION FOR THE TREATMENT OF CYSTIC FIBROSIS” (GALENUS G.H. AG, priority 2018, published 2022)
